Data reported in patent publication US20250122182A1 (Isosterix, Inc., priority 2023, published 2025).

Molecular target: Recombinant KAT6A/MOZ (488-778) protein (Homo sapiens (Human), UniProt Q92794)
Assay: KAT6A AlphaLISA Inhibition Screening Assay
Format: biochemical
Conditions: for Average Kat6A % inhibition @ 1 μM / inhibition at 1 µM: 1 μM test compound; for Average Kat6A % inhibition @ 10 μM / inhibition at 10 µM: 10 μM test compound; for inhibition at 1 µM: read-out: Average Kat6A % inhibition @ 1 μM; for inhibition at 10 µM: read-out: Average Kat6A % inhibition @ 10 μM
Protocol: The Kat6a inhibitory activity of test compounds was determined using an Alpha Screen-based detection method. The assay reactions were conducted in a volume of 10 μL in Alpha Plate, White 384 well plate (cat #6008280, Perkin Elmer). The enzymatic reactions were performed in assay buffer pH 8.0 (50 mM Tris-HCl, 0.1 mM EDTA, 0.01% Tween-20, 1 mM Dithiothreitol, 0.1% BSA (fatty acid free) and 330 nM TSA (Trichostatin A)). 10 μL reaction volume consisting of 25 nM of Recombinant KAT6A/MOZ (488-778) protein (Active motif, Catalog #81223), 400 nM Acetyl coenzyme A (Catalog #A2056, Sigma), 200 nM of Histone H3 peptide [(amino acids 1-21), biotin-labeled (BPS Biosciences, Catalog #52011)]. Test compounds were screened at different doses starting with 10 μM, 3 fold dilution and 10 point Dose response curve. Enzyme and compounds solution were pre-incubated in assay plate for 60 or 10 min at room temperature then substrate and Acetyl coenzyme A solution were added to the plate. After addition, the plate was sealed with adhesive seals and incubated for 120 minutes at room temperature.
After 120 minutes of incubation, […] of AlphaLISA anti-acetyl-Lysine acceptor beads (Perkin Elmer, Catalog #AL143C) were added to the plate and it was incubated for 60 minutes at room temperature. Then […] of Alpha Streptavidin donor beads (Perkin Elmer, Catalog #6760002S) were added to the plate which was further incubated for 60 minutes at room temperature. After incubation, the alpha signal was recorded by using Perkin Elmer Envision multi-mode reader. Percent inhibition of enzyme activity by test compounds were determined relative to vehicle control.

Recombinant KAT6A/MOZ (488-778) protein, sequence (Q92794 488-778): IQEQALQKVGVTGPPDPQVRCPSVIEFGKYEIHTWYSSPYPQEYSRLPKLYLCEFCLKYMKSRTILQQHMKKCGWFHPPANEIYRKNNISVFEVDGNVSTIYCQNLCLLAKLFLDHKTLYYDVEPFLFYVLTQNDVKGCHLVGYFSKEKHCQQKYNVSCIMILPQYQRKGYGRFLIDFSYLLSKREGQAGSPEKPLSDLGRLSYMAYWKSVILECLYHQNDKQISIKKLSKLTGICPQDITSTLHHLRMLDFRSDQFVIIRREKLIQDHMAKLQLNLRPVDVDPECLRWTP

Compound	Average Kat6A % inhibition @ 1 μM [%]	Average Kat6A % inhibition @ 10 μM [%]	inhibition at 1 µM [%]	inhibition at 10 µM [%]
CCc1cc(S(=O)(=O)Nc2noc3cc(Cn4cc(CNC(=O)OC)cn4)cc(OC)c23)c(OC)cn1 [Syn. Ex. 120, methyl ((1-((3-((2-ethyl-5-methoxypyridine)-4-sulfonamido)-4-methoxybenzo[d]isoxazol-6-yl)methyl)-1H-pyrazol-4-yl)methyl)carbamate]	100	100		
CCc1ccc(OCc2ccnc(OC)c2)c(S(=O)(=O)Nc2noc3cc(Cn4cc(CNC(=O)OC)cn4)cc(OC)c23)c1 [Syn. Ex. 95, methyl ((1-((3-((5-ethyl-2-((2-methoxypyridin-4-yl)methoxy)phenyl)sulfonamido)-4-methoxybenzo[d]isoxazol-6-yl)methyl)-1H-pyrazol-4-yl)methyl)carbamate]			100	100
C#CC(=O)N1Cc2cn(Cc3cc(OC)c4c(NS(=O)(=O)c5cc(Cl)ccc5OC)noc4c3)nc2C1 [Syn. Ex. 2, 5-chloro-2-methoxy-N-(4-methoxy-6-((5-propioloyl-5,6-dihydropyrrolo[3,4-c]pyrazol-2(4H)-yl)methyl)benzo[d]isoxazol-3-yl)benzenesulfonamide]			71	100
C=C(F)C(=O)NCc1cnn(Cc2cc3onc(NS(=O)(=O)c4ccccc4OC)c3cc2OC)c1 [Syn. Ex. 146, 2-fluoro-N-((1-((5-methoxy-3-((2-methoxyphenyl)sulfonamido)benzo[d]isoxazol-6-yl)methyl)-1H-pyrazol-4-yl)methyl) acrylamide]	99	101		
C#CC(=O)N1Cc2cnn(Cc3cc(OC)c4c(NS(=O)(=O)c5ccc(C#N)cc5OC)noc4c3)c2C1 [Syn. Ex. 26, 4-cyano-2-methoxy-N-(4-methoxy-6-((5-propioloyl-5,6-dihydropyrrolo[3,4-c]pyrazol-1(4H)-yl)methyl)benzo[d]isoxazol-3-yl) benzenesulfonamide]	99	100		
COc1ccc(C(C)(C)C)cc1S(=O)(=O)Nc1noc2cc(Cn3cc(CNS(C)(=O)=O)cn3)cc(OC)c12 [Syn. Ex. 33, 5-(tert-butyl)-2-methoxy-N-(4-methoxy-6-((4-(methylsulfonamidomethyl)-1H-pyrazol-1-yl)methyl)benzo[d]isoxazol-3-yl)benzenesulfonamide]			96	100
COC(=O)NCc1cnn(Cc2cc(OC)c3c(NS(=O)(=O)c4cc(C)ccc4OC)noc3c2)c1 [Syn. Ex. 88, methyl ((1-((4-methoxy-3-((2-methoxy-5-methylphenyl)sulfonamido)benzo[d]isoxazol-6-yl)methyl)-1H-pyrazol-4-yl)methyl)carbamate]			99	98
CC#CC(=O)NCc1cnn(Cc2cc(OC)c3c(NS(=O)(=O)c4cc5c(cc4OC)CCC5)noc3c2)c1 [Syn. Ex. 29, N-((1-((4-methoxy-3-((6-methoxy-2,3-dihydro-1H-indene)-5-sulfonamido)benzo[d]isoxazol-6-yl)methyl)-1H-pyrazol-4-yl)methyl) but-2-ynamide]	100	100		
C#CC(=O)NCc1cnc(Oc2cc(OC)c3c(NS(=O)(=O)c4cc(CC)ccc4OC)noc3c2)s1 [Syn. Ex. 103, N-((2-((3-((5-ethyl-2-methoxyphenyl)sulfonamido)-4-methoxybenzo[d]isoxazol-6-yl)oxy)thiazol-5-yl)methyl)propiolamide]			97	99
C#CC(=O)N1CCc2cnn(Cc3cc(OC)c4c(NS(=O)(=O)c5cc(CC)ccc5OC)noc4c3)c2CC1 [Syn. Ex. 9, 5-ethyl-2-methoxy-N-(4-methoxy-6-((6-propioloyl-5,6,7,8-tetrahydropyrazolo[3,4-d]azepin-1(4H)-yl)methyl)benzo[d]isoxazol-3-yl)benzenesulfonamide]			61	100
C=C(F)C(=O)NCc1cnn(Cc2cc(OC)c3c(NS(=O)(=O)c4cc(CC)ccc4OCCN)noc3c2)c1 [Syn. Ex. 76, N-((1-((3-((2-(2-aminoethoxy)-5-ethylphenyl)sulfonamido)-4-methoxybenzo[d]isoxazol-6-yl)methyl)-1H-pyrazol-4-yl)methyl)-2-fluoroacrylamide]			74	96
C=C(F)C(=O)NCc1cnn(Cc2cc(OC)c3c(NS(=O)(=O)c4c(OC)ccnc4OC)noc3c2)c1 [Syn. Ex. 87, N-((1-((3-((2,4-dimethoxypyridine)-3-sulfonamido)-4-methoxybenzo[d]isoxazol-6-yl)methyl)-1H-pyrazol-4-yl)methyl)-2-fluoroacrylamide]	95	100		
CCc1ccc(OC)c(S(=O)(=O)Nc2noc3cc(Oc4nc(CNC(=O)OC)cs4)cc(OC)c23)c1 [Syn. Ex. 104, methyl ((2-((3-((5-ethyl-2-methoxyphenyl)sulfonamido)-4-methoxybenzo[d]isoxazol-6-yl)oxy)thiazol-4-yl)methyl)carbamate]			25	92
COC(=O)NCc1cnn(Cc2cc3onc(NS(=O)(=O)c4ccccc4OC)c3c3c2CCCO3)c1 [Syn. Ex. 133, methyl ((1-((9-((2-methoxyphenyl)sulfonamido)-3,4-dihydro-2H-chromeno[8,7-d]isoxazol-5-yl)methyl)-1H-pyrazol-4-yl)methyl)carbamate]			100	103
C#CC(=O)N1Cc2cnn(Cc3cc(OC)c4c(NS(=O)(=O)c5cc(OC)ccc5OC)noc4c3)c2C1 [Syn. Ex. 4, 2,5-dimethoxy-N-(4-methoxy-6-((5-propioloyl-5,6-dihydropyrrolo[3,4-c]pyrazol-1(4H)-yl)methyl)benzo[d]isoxazol-3-yl)benzenesulfonamide]			100	100
CCc1ccc(OCCN2CCOC2=O)c(S(=O)(=O)Nc2noc3cc(Cn4cc(CNC(=O)OC)cn4)cc(OC)c23)c1 [Syn. Ex. 77, methyl ((1-((3-((5-ethyl-2-(2-(2-oxooxazolidin-3-yl)ethoxy)phenyl)sulfonamido)-4-methoxybenzo[d]isoxazol-6-yl)methyl)-1H-pyrazol-4-yl)methyl)carbamate]			96	98
C=C(F)C(=O)NCc1cnn(Cc2cc(OC)c3c(NS(=O)(=O)c4ccc(OC)cc4OC)noc3c2)c1 [Syn. Ex. 60, N-((1-((3-((2,4-dimethoxyphenyl)sulfonamido)-4-methoxybenzo[d]isoxazol-6-yl)methyl)-1H-pyrazol-4-yl)methyl)-2-fluoroacrylamide]			93	100
CCc1ccc(OCc2ncon2)c(S(=O)(=O)Nc2noc3cc(Cn4cc(CNC(=O)OC)cn4)cc(OC)c23)c1 [Syn. Ex. 74, methyl ((1-((3-((2-((1,2,4-oxadiazol-3-yl)methoxy)-5-ethylphenyl)sulfonamido)-4-methoxybenzo[d]isoxazol-6-yl)methyl)-1H-pyrazol-4-yl)methyl)carbamate]			100	100
